In US9409905B2, “Antibacterial compounds and methods for use” (PTC THERAPEUTICS, INC., priority 2011, dated 2016):
≈ marks a conversion by molar mass, not a printed value.

Experiments:
E. coli 25922 = test: Antibacterial activity, microbroth dilution MIC (Table 1); type: cell-based, Escherichia coli; settings: Escherichia coli; microbroth dilution; control Gram-negative E. coli 25922 strain; read-out: MIC, 25922
Outline: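 MIC (μg/mL) read as lowest concentration with no macroscopically visible growth; microbroth dilution format. E. coli 25922 served as control Gram-negative strain.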

[1] = test system: Neisseria meningitidis (N. meningitidis) 13090; test: Antibacterial activity, MIC (Table 8); type: cell-based
Outline: (§1)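 Activity was determined by microbroth dilution. MIC, in μg/mL, is the lowest drug concentration that prevents macroscopically visible growth under the test conditions.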

[2] = test system: Moraxella catarrhalis (M. catarrhalis) 25238; test: Antibacterial activity, MIC (Table 7); type: cell-based
Outline: as §1

E. coli ELZ4000 = test: Antibacterial activity, MIC, multi-drug resistant clinical isolate (Table 3); type: cell-based; settings: Escherichia coli, ELZ4000, read-out: MIC ELZ4000
Outline: (§2)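 Microbroth dilution. Endpoint: absence of macroscopically visible growth. Value = MIC, μg/mL.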

E. coli ELZ4251 = test: as above; type: cell-based; settings: Escherichia coli
Outline: as §2

[3] = test system: Escherichia coli (E. coli) BAS849; test: Antibacterial activity, microbroth dilution MIC (Table 1); type: cell-based; settings: microbroth dilution, super sensitive Gram-negative E. coli BAS849, read-out: MIC, BAS849
Outline: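 In a microbroth dilution test, the minimum inhibitory concentration was defined as the lowest compound level preventing growth seen by eye, and was given in μg/mL.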

[4] = test system: Staphylococcus aureus (S. aureus) 29213; test: as above; type: cell-based; settings: microbroth dilution, Gram-positive S. aureus 29213, read-out: MIC, 29213
Outline: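 Read-out: visual absence of growth. The lowest concentration meeting this gives the MIC, expressed in μg/mL, with microbroth dilution as the method.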

[5] = test system: Acinetobacter baumannii (A. baumannii) BAA747; test: Antibacterial activity, MIC (Table 4); type: cell-based; settings: A. baumannii BAA747, read-out: MIC, BAA747
Outline: (§3)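 Values are minimum inhibitory concentrations in μg/mL from broth microdilution, meaning no macroscopically visible growth at that concentration. Resistant MXX isolates are multi-drug resistant clinical strains.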

[6] = test system: Klebsiella pneumoniae (K. pneumoniae) 35657; test: Antibacterial activity, MIC (Table 4); type: cell-based; settings: K. pneumoniae 35657, read-out: MIC, 35657
Outline: as §3

A. baumannii MXX2240 = test: Antibacterial activity, MIC, resistant strain (Table 4); type: cell-based; settings: Acinetobacter baumannii, MXX2240; resistant A. baumannii MMX2240, multi-drug resistant clinical isolate; read-out: MIC, MMX2240
Outline: as §3

K. pneumoniae MXX1232 = test: as above; type: cell-based; settings: Klebsiella pneumoniae, MXX1232; resistant K. pneumoniae MMX1232, multi-drug resistant clinical isolate; read-out: MIC, MMX1232
Outline: as §3

[7] = test system: Pseudomonas aeruginosa (P. aeruginosa) 27853; test: Antibacterial activity, MIC (Table 5); type: cell-based; settings: P. aeruginosa 27853, read-out: MIC, 27853
Outline: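 Compounds are serially diluted in broth and inoculated with the organism. Growth is then inspected macroscopically, and the lowest concentration showing none is taken as the MIC (μg/mL).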

E. coli LZ3111 = test: Antibacterial activity, MIC, quinolone resistant strain (Table 2); type: cell-based; settings: Escherichia coli, LZ3111, read-out: MIC LZ3111
Outline: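 Strain carries mutations conferring high-level quinolone resistance; tested by microbroth dilution, MIC recorded in μg/mL as lowest concentration preventing visible growth.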

[8] = test system: Haemophilus influenzae (H. influenzae) 49247; test: Antibacterial activity, MIC (Table 6); type: cell-based
Outline: as §1

SMILES | MIC (E. coli 25922) | MIC [1] | MIC [2] | MIC (E. coli ELZ4000) | MIC (E. coli ELZ4251) | MIC [3] | MIC [4] | MIC [5] | MIC [6] | MIC (A. baumannii MXX2240) | MIC (K. pneumoniae MXX1232) | MIC [7] | MIC (E. coli LZ3111) | MIC [8]
CNCc1cc2cc(-c3[nH]c(=O)c(C(=O)O)c(O)c3C)ccc2n1C [Cpd 317, 4-hydroxy-5-methyl-6-(1-methyl-2-((methylamino)methyl)-1H-indol-5-yl)-2-oxo-1,2-dihydropyridine-3-carboxylic acid] | 1 to 3.5 µg/mL (≈ 2.93 to 10.3 µM) | < 1 µg/mL | 3.5 to 12.5 µg/mL (≈ 10.3 to 36.6 µM) | 1 to 3.5 µg/mL (≈ 2.93 to 10.3 µM) | < 1 µg/mL | < 1 µg/mL | 12.5 to 150 µg/mL (≈ 36.6 to 439 µM) | 3.5 to 12.5 µg/mL (≈ 10.3 to 36.6 µM) | 1 to 3.5 µg/mL (≈ 2.93 to 10.3 µM) | 1 to 3.5 µg/mL (≈ 2.93 to 10.3 µM) | 3.5 to 12.5 µg/mL (≈ 10.3 to 36.6 µM) | 12.5 to 150 µg/mL (≈ 36.6 to 439 µM) | < 1 µg/mL | 1 to 3.5 µg/mL (≈ 2.93 to 10.3 µM)
CCc1c(-c2ccc3c(c2)cc(CN2C[C@H]4CCC[C@@H](N(C)C)[C@H]4C2)n3C)[nH]c(=O)c(C(=O)O)c1O [Cpd 279, 6-(2-(((3aR,4R,7aS)-4-(dimethylamino)-1H-isoindol-2(3H,3aH,4H,5H,6H,7H,7aH)-yl)methyl)-1-methyl-1H-indol-5-yl)-5-ethyl-4-hydroxy-2-oxo-1,2-dihydropyridine-3-carboxylic acid] | 1 to 3.5 µg/mL (≈ 2.03 to 7.1 µM) | < 1 µg/mL | 1 to 3.5 µg/mL (≈ 2.03 to 7.1 µM) | 12.5 to 150 µg/mL (≈ 25.4 to 304 µM) | 12.5 to 150 µg/mL (≈ 25.4 to 304 µM) | < 1 µg/mL | 3.5 to 12.5 µg/mL (≈ 7.1 to 25.4 µM) | 1 to 3.5 µg/mL (≈ 2.03 to 7.1 µM) | 1 to 3.5 µg/mL (≈ 2.03 to 7.1 µM) | 12.5 to 150 µg/mL (≈ 25.4 to 304 µM) | 12.5 to 150 µg/mL (≈ 25.4 to 304 µM) | 12.5 to 150 µg/mL (≈ 25.4 to 304 µM) | 1 to 3.5 µg/mL (≈ 2.03 to 7.1 µM) | 1 to 3.5 µg/mL (≈ 2.03 to 7.1 µM)
CCc1c(-c2ccc3c(c2)cc(CN2CCC2)n3C)[nH]c(=O)c(C(=O)O)c1O [Cpd 186, 6-(2-(azetidin-1-ylmethyl)-1-methyl-1H-indol-5-yl)-5-ethyl-4-hydroxy-2-oxo-1,2-dihydropyridine-3-carboxylic acid] | < 1 µg/mL | 3.5 to 12.5 µg/mL (≈ 9.18 to 32.8 µM) | < 1 µg/mL | 3.5 to 12.5 µg/mL (≈ 9.18 to 32.8 µM) | 3.5 to 12.5 µg/mL (≈ 9.18 to 32.8 µM) | < 1 µg/mL | 3.5 to 12.5 µg/mL (≈ 9.18 to 32.8 µM) | < 1 µg/mL | < 1 µg/mL | 1 to 3.5 µg/mL (≈ 2.62 to 9.18 µM) | 12.5 to 150 µg/mL (≈ 32.8 to 393 µM) | 3.5 to 12.5 µg/mL (≈ 9.18 to 32.8 µM) | 1 to 3.5 µg/mL (≈ 2.62 to 9.18 µM) | < 1 µg/mL
CCc1c(-c2ccc3c(c2)cc(CN2CCNCC2)n3C)[nH]c(=O)c(C(=O)O)c1O [Cpd 171, 5-ethyl-4-hydroxy-6-(1-methyl-2-(piperazin-1-ylmethyl)-1H-indol-5-yl)-2-oxo-1,2-dihydropyridine-3-carboxylic acid] | 1 to 3.5 µg/mL (≈ 2.44 to 8.53 µM) | 1 to 3.5 µg/mL (≈ 2.44 to 8.53 µM) | 3.5 to 12.5 µg/mL (≈ 8.53 to 30.5 µM) | 12.5 to 150 µg/mL (≈ 30.5 to 365 µM) | 12.5 to 150 µg/mL (≈ 30.5 to 365 µM) | < 1 µg/mL | 12.5 to 150 µg/mL (≈ 30.5 to 365 µM) | 12.5 to 150 µg/mL (≈ 30.5 to 365 µM) | 1 to 3.5 µg/mL (≈ 2.44 to 8.53 µM) | 12.5 to 150 µg/mL (≈ 30.5 to 365 µM) | 12.5 to 150 µg/mL (≈ 30.5 to 365 µM) | 12.5 to 150 µg/mL (≈ 30.5 to 365 µM) | 1 to 3.5 µg/mL (≈ 2.44 to 8.53 µM) | 1 to 3.5 µg/mL (≈ 2.44 to 8.53 µM)
CCc1c(-c2ccc3c(c2)cc(CN(C)C2CCC2)n3C)[nH]c(=O)c(C(=O)O)c1O.Cl [Cpd 209, 6-(2-((cyclobutyl(methyl)amino)methyl)-1-methyl-1H-indol-5-yl)-5-ethyl-4-hydroxy-2-oxo-1,2-dihydropyridine-3-carboxylic acid hydrochloride] | < 1 µg/mL | < 1 µg/mL | < 1 µg/mL | 12.5 to 150 µg/mL | 12.5 to 150 µg/mL | < 1 µg/mL | 3.5 to 12.5 µg/mL | 1 to 3.5 µg/mL | 1 to 3.5 µg/mL | 3.5 to 12.5 µg/mL | 12.5 to 150 µg/mL | 12.5 to 150 µg/mL | 3.5 to 12.5 µg/mL | < 1 µg/mL
CCc1c(-c2ccc3c(c2)cc(CNCC2CCCN2CC)n3C)[nH]c(=O)c(C(=O)O)c1O.Cl.Cl (stereo not drawn) [Cpd 230, 5-ethyl-6-(2-(((1-ethylpyrrolidin-2-yl)methylamino)methyl)-1-methyl-1H-indol-5-yl)-4-hydroxy-2-oxo-1,2-dihydropyridine-3-carboxylic acid dihydrochloride] | 3.5 to 12.5 µg/mL | 1 to 3.5 µg/mL | 3.5 to 12.5 µg/mL | 12.5 to 150 µg/mL | 12.5 to 150 µg/mL | < 1 µg/mL | 12.5 to 150 µg/mL | 12.5 to 150 µg/mL | 1 to 3.5 µg/mL | 12.5 to 150 µg/mL | 12.5 to 150 µg/mL | 12.5 to 150 µg/mL | 3.5 to 12.5 µg/mL | 3.5 to 12.5 µg/mL
